Assay results published in PubChem BioAssay (NCI).
Several values for one entry are separate records, joined by “and”; a condition that tells them apart may be missing. Equal values may be shown once.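 Five concentrations, 48 hours, 96-well plates. GI50: concentration for 50% inhibition of growth. TGI is the concentration that stops growth completely.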

Tests used:
Experiment in all cases: growth of human tumour cells (NCI), 48 h
OVCAR-4 ovarian = test system: OVCAR-4 ovarian
U251 CNS = test system: U251 CNS
KM12 colon = test system: KM12 colon
NCI/ADR-RES ovarian = test system: NCI/ADR-RES ovarian
SN12C renal = test system: SN12C renal
HT29 colon = test system: HT29 colon
A498 renal = test system: A498 renal
HCC-2998 colon = test system: HCC-2998 colon
UO-31 renal = test system: UO-31 renal
SNB-75 CNS = test system: SNB-75 CNS

Compound	GI50 (OVCAR-4 ovarian) [nM]	TGI (OVCAR-4 ovarian)	GI50 (U251 CNS)	TGI (U251 CNS)	GI50 (KM12 colon)	TGI (KM12 colon)	GI50 (NCI/ADR-RES ovarian)	TGI (NCI/ADR-RES ovarian)	GI50 (SN12C renal)	TGI (SN12C renal)	GI50 (HT29 colon)	TGI (HT29 colon)	GI50 (A498 renal)	TGI (A498 renal)	GI50 (HCC-2998 colon)	TGI (HCC-2998 colon)	GI50 (UO-31 renal) [nM]	TGI (UO-31 renal)	GI50 (SNB-75 CNS) [nM]	TGI (SNB-75 CNS)
Cn1cc(C2=C(c3cccc(Cl)c3)C(=O)NC2=O)c2ccccc21	> 22600	> 25 µM	16500 nM	> 25 µM	> 25000 nM	> 25 µM	> 25000 nM	> 25 µM	20600 nM	> 25 µM	10300 nM	> 25 µM	8250 nM	> 25 µM	9590 nM	> 25 µM	8300	> 25 µM	6650	> 25 µM
COC(=O)C12CC(NC(=O)c3csc([C@@H](C[C@H](C(C)C)N(C)C(=O)[C@@H](NC(=O)[C@H]4CCCCN4C)C(C)C)OC(C)=O)n3)(C1)C2	–	> 33.3 µM	4.29 nM and 3.33 nM	> 33.3 µM	5.07 nM and 3.33 nM	> 33.3 µM	147 nM	> 33.3 µM	3 nM and 3.33 nM	> 33.3 µM	1.77 nM and 3.33 nM	0.0396 µM	15.3 nM and 4.73 nM	0.829 µM and 0.194 µM	7.48 nM and 3.33 nM	> 33.3 µM	46.2	–	3.33	> 33.3 µM
COC(=O)CCCCCCCCC(=O)c1c(C)[nH]c(/C=C2\N=C(c3ccc[nH]3)C=C2OC)c1C	> 85900	> 100 µM	10900 nM	> 100 µM	> 69900 nM	> 100 µM	24200 nM	> 100 µM	> 53800 nM	> 100 µM	32400 nM	> 100 µM	> 100000 nM	> 100 µM	> 26900 nM	> 100 µM	30500	> 73.6 µM	> 31000	> 83.7 µM
CCN(CC)CCn1nc2c3c(cccc3c1=O)-c1ccccc1-2	3330	26 µM	2180 nM	24.7 µM	2840 nM	> 50 µM	2190 nM	45.1 µM	2070 nM	> 50 µM	1890 nM	13.2 µM	2980 nM	9.95 µM	2000 nM	11 µM	1250	> 50 µM	3270	11.1 µM
C=C1C(=O)O[C@H]2[C@H]1CC/C(COC(=O)c1ccc(Br)cc1)=C\CC[C@@]1(C)O[C@@H]21	1570	3.68 µM	1550 nM	2.98 µM	1800 nM	3.66 µM	2340 nM	8.68 µM	1630 nM	3.69 µM	1130 nM	3.43 µM	11000 nM	23.7 µM	2050 nM	4.27 µM	1290	2.56 µM	1160	2.41 µM
CCCCOc1nc2ccccc2cc1C1CNC(=O)c2ccccc2N1 (stereo unspecified)	4770	24.8 µM	3350 nM	14.2 µM	3310 nM	72.5 µM	2120 nM	8.76 µM	3770 nM	18.9 µM	3300 nM	10.6 µM	807 nM	5.3 µM	3680 nM	21.5 µM	2830	20 µM	1750	12.2 µM
Cn1cc(C2=C(c3cn(C)c4cc(Cl)ccc34)C(=O)NC2=O)c2ccccc21	362	> 25 µM	98.8 nM	> 25 µM	106 nM	4.35 µM	76.1 nM	–	145 nM	> 15.9 µM	92.8 nM	> 9.62 µM	61.9 nM	0.928 µM	203 nM	> 11.7 µM	195	> 25 µM	89.3	> 25 µM
CCc1cc(Nc2nccc(-c3c(-c4ccc(OC)c(C(=O)Nc5c(F)cccc5F)c4)nc4ccccn34)n2)c(OC)cc1N1CCC(N2CCN(S(C)(=O)=O)CC2)CC1	> 100000	> 100 µM	> 100000 nM	> 100 µM	> 100000 nM	> 100 µM	> 100000 nM	> 100 µM	> 100000 nM	> 100 µM	–	> 100 µM	> 100000 nM	> 100 µM	> 100000 nM	> 100 µM	> 100000	> 100 µM	> 50100	> 100 µM
Nc1cc2ccncc2c2ccccc12	20200	> 100 µM	21000 nM	> 100 µM	11600 nM	> 100 µM	8700 nM	> 100 µM	11400 nM	> 100 µM	13200 nM	43 µM	1840 nM	13.7 µM	14200 nM	40.4 µM	4100	45.6 µM	16100	35.2 µM
CCCCCCCC(=O)O[C@H]1[C@H]2[C@@H](CC1(C)C)C(=O)[C@]13O[C@H]1C(=O)[C@]1(CO1)[C@]23C	2830	9.2 µM and 9.85 µM	5800 nM	11.9 µM and 22.8 µM	19000 nM	40.3 µM and 21.5 µM	2390 nM and 1720 nM	5.26 µM and 9.64 µM	–	12.6 µM and 9.31 µM	–	14.4 µM and 14.9 µM	21600 nM	36.1 µM and 22.8 µM	9400 nM	21.3 µM and 13.2 µM	5730	12.9 µM and 28.2 µM	14200	29.4 µM and 53.6 µM
Fc1ccc(-c2ncn(C3CCNCC3)c2-c2ccnc(Oc3ccc(Oc4ccccc4)cc3)n2)cc1	3780	7.27 µM	3560 nM	7.18 µM	4160 nM	7.8 µM	3480 nM	7.04 µM	3570 nM	6.96 µM	2130 nM	5.23 µM	3570 nM	7.01 µM	3150 nM	6.69 µM	2960	6.29 µM	3400	6.67 µM
COc1ccc(C2C3=C(COC3=O)N(CCO)c3cc4c(cc32)CCC4)cc1OC (stereo unspecified)	901	> 50 µM	1150 nM	> 50 µM	297 nM	> 50 µM	2520 nM	> 36.4 µM	3410 nM	> 50 µM	620 nM	> 10.3 µM	242 nM	> 20 µM	945 nM	> 16.3 µM	1130	> 50 µM	253	2.48 µM
O=C1c2ccccc2-c2c1c1ccccc1c(=O)n2CCCNCCO	1240	5.95 µM	302 nM	5.61 µM	485 nM	4 µM	1670 nM	8.7 µM	454 nM	6.25 µM	330 nM	6.68 µM	–	1.28 µM	1280 nM	5.74 µM	303	2.06 µM	1430	5.68 µM
CCN(CC)c1ccc(/C=C2/NC(=O)NC2=O)cc1	22600	> 100 µM	6050 nM	> 100 µM	1650 nM	> 24.2 µM	1930 nM	12.2 µM	11100 nM	> 100 µM	2830 nM	> 100 µM	7440 nM	> 89.3 µM	16200 nM	> 100 µM	–	> 100 µM	4010	> 100 µM
O=C(N/N=C\c1cc(Br)cc(Br)c1O)N/N=C/c1cc(Br)cc(Br)c1O	2500	12.9 µM	2140 nM	15.7 µM	2900 nM	11.7 µM	3160 nM	16 µM	4560 nM	17.8 µM	5930 nM	18.3 µM	7810 nM	22.8 µM	13400 nM	32.5 µM	1800	8.7 µM	1110	15.6 µM
O=C(Nc1ccc(I)cc1F)c1cc(F)ccc1O	396	17.2 µM	578 nM	> 100 µM	2210 nM	6.23 µM	401 nM	> 27.7 µM	354 nM	3.77 µM	3440 nM	> 100 µM	163 nM	0.634 µM	3100 nM	26.4 µM	236	1.34 µM	225	2.31 µM
Clc1ccc2c(NCCNc3nc(Cl)nc4ccccc34)ccnc2c1	323	1.22 µM	–	–	1610 nM	3.17 µM	2500 nM	7.24 µM	1480 nM	3.2 µM	193 nM	0.377 µM	1870 nM	3.52 µM	1620 nM	3.18 µM	1500	2.94 µM	1640	3.16 µM
CCN1CCN(c2nc(NNC(=O)c3cccc(OC)c3)nc(N3CCN(C(c4ccccc4)c4ccccc4)CC3)n2)CC1	2060	5.97 µM	–	–	2280 nM	5.48 µM	2420 nM	7.12 µM	1620 nM	3.36 µM	–	–	3730 nM	15.3 µM	1960 nM	4.33 µM	1230	2.47 µM	201	7.71 µM
